Experimental data as given in PubChem BioAssay (NCI).
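Growth conditions: 96-well plates. Treatment: test compound, 48 hours, 5 concentrations. Analysis: linear interpolation between bracketing concentrations; unreached endpoints set to highest concentration. Here, GI50 denotes the concentration required for 50% inhibition of growth. TGI denotes the concentration required for complete inhibition of growth.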

What was measured:
Assay in all cases: NCI-60 cell line screen, 48 h
RXF 393 renal = tested on: RXF 393 renal
DU-145 prostate = tested on: DU-145 prostate
NCI-H226 lung = tested on: NCI-H226 lung
MCF7 breast = tested on: MCF7 breast
OVCAR-4 ovarian = tested on: OVCAR-4 ovarian
T-47D breast = tested on: T-47D breast
HOP-62 NSCLC = tested on: HOP-62 NSCLC
RPMI-8226 leukemia = tested on: RPMI-8226 leukemia
786-0 renal = tested on: 786-0 renal
MDA-MB-231 breast = tested on: MDA-MB-231 breast
HT29 colon = tested on: HT29 colon
HCT-15 colon = tested on: HCT-15 colon
IGROV1 ovarian = tested on: IGROV1 ovarian
COLO 205 colon = tested on: COLO 205 colon
HS 578T breast = tested on: HS 578T breast
U251 CNS = tested on: U251 CNS
SF-295 CNS = tested on: SF-295 CNS
NCI-H460 lung = tested on: NCI-H460 lung
ACHN renal = tested on: ACHN renal
TK-10 renal = tested on: TK-10 renal
HOP-92 NSCLC = tested on: HOP-92 NSCLC
PC-3 prostate = tested on: PC-3 prostate
MALME-3M melanoma = tested on: MALME-3M melanoma
SN12C renal = tested on: SN12C renal
UACC-62 melanoma = tested on: UACC-62 melanoma
KM12 colon = tested on: KM12 colon
CAKI-1 renal = tested on: CAKI-1 renal
OVCAR-8 ovarian = tested on: OVCAR-8 ovarian
A549 NSCLC = tested on: A549 NSCLC
SF-539 CNS = tested on: SF-539 CNS
OVCAR-5 ovarian = tested on: OVCAR-5 ovarian
SF-268 CNS = tested on: SF-268 CNS
A498 renal = tested on: A498 renal
HCT-116 colon = tested on: HCT-116 colon
BT-549 breast = tested on: BT-549 breast
SK-OV-3 ovarian = tested on: SK-OV-3 ovarian
NCI-H522 lung = tested on: NCI-H522 lung
SK-MEL-2 melanoma = tested on: SK-MEL-2 melanoma
NCI-H23 lung = tested on: NCI-H23 lung
M14 melanoma = tested on: M14 melanoma
SNB-75 CNS = tested on: SNB-75 CNS
HCC-2998 colon = tested on: HCC-2998 colon
SNB-19 CNS = tested on: SNB-19 CNS
MDA-MB-468 breast = tested on: MDA-MB-468 breast
LOX IMVI melanoma = tested on: LOX IMVI melanoma

COc1cc(/C=C/C(=O)c2nnn(-c3ccc(Cl)cc3)c2C)cc(OC)c1OC
GI50 (RXF 393 renal): 6.39 µM
TGI (RXF 393 renal): > 100 µM
GI50 (DU-145 prostate): 3.62 µM
TGI (DU-145 prostate): > 100 µM
GI50 (NCI-H226 lung): 7.53 µM
TGI (NCI-H226 lung): > 100 µM
GI50 (MCF7 breast): 3.23 µM
TGI (MCF7 breast): > 100 µM
GI50 (OVCAR-4 ovarian): 4.25 µM
TGI (OVCAR-4 ovarian): > 100 µM
GI50 (T-47D breast): > 100 µM
TGI (T-47D breast): > 100 µM
GI50 (HOP-62 NSCLC): 11 µM
TGI (HOP-62 NSCLC): > 100 µM
GI50 (RPMI-8226 leukemia): 2.22 µM
TGI (RPMI-8226 leukemia): > 100 µM
GI50 (786-0 renal): 8.67 µM
TGI (786-0 renal): 62 µM
GI50 (MDA-MB-231 breast): 3.48 µM
TGI (MDA-MB-231 breast): > 100 µM
GI50 (HT29 colon): 4.1 µM
TGI (HT29 colon): > 100 µM
GI50 (HCT-15 colon): 3.23 µM
TGI (HCT-15 colon): > 100 µM
GI50 (IGROV1 ovarian): > 100 µM
TGI (IGROV1 ovarian): > 100 µM
GI50 (COLO 205 colon): > 100 µM
TGI (COLO 205 colon): > 100 µM
GI50 (HS 578T breast): 5.47 µM
TGI (HS 578T breast): > 100 µM
GI50 (U251 CNS): 4.1 µM
TGI (U251 CNS): > 100 µM
GI50 (SF-295 CNS): 41.4 µM
TGI (SF-295 CNS): > 100 µM
GI50 (NCI-H460 lung): 3.59 µM
TGI (NCI-H460 lung): > 100 µM
GI50 (ACHN renal): 5.82 µM
TGI (ACHN renal): > 100 µM
GI50 (TK-10 renal): > 100 µM
TGI (TK-10 renal): > 100 µM
GI50 (HOP-92 NSCLC): 2.55 µM
TGI (HOP-92 NSCLC): 23.6 µM
GI50 (PC-3 prostate): 3.53 µM
TGI (PC-3 prostate): > 100 µM
GI50 (MALME-3M melanoma): 7.35 µM
TGI (MALME-3M melanoma): > 100 µM
GI50 (SN12C renal): 4.15 µM
TGI (SN12C renal): > 100 µM
GI50 (UACC-62 melanoma): 5.59 µM
TGI (UACC-62 melanoma): > 100 µM
GI50 (KM12 colon): 8.53 µM
TGI (KM12 colon): > 100 µM
GI50 (CAKI-1 renal): 4.46 µM
TGI (CAKI-1 renal): > 100 µM
GI50 (OVCAR-8 ovarian): 4.15 µM
TGI (OVCAR-8 ovarian): > 100 µM
GI50 (A549 NSCLC): 6.11 µM
TGI (A549 NSCLC): > 100 µM
GI50 (SF-539 CNS): > 100 µM
TGI (SF-539 CNS): > 100 µM
GI50 (OVCAR-5 ovarian): > 100 µM
TGI (OVCAR-5 ovarian): > 100 µM
GI50 (SF-268 CNS): 20.9 µM
TGI (SF-268 CNS): > 100 µM
GI50 (A498 renal): > 100 µM
TGI (A498 renal): > 100 µM
GI50 (HCT-116 colon): 3.55 µM
TGI (HCT-116 colon): > 100 µM
GI50 (BT-549 breast): 4.23 µM
TGI (BT-549 breast): 84.3 µM
GI50 (SK-OV-3 ovarian): > 100 µM
TGI (SK-OV-3 ovarian): > 100 µM
GI50 (NCI-H522 lung): 4.06 µM
TGI (NCI-H522 lung): > 100 µM
GI50 (SK-MEL-2 melanoma): > 100 µM
TGI (SK-MEL-2 melanoma): > 100 µM
GI50 (NCI-H23 lung): 6.2 µM
TGI (NCI-H23 lung): > 100 µM
GI50 (M14 melanoma): 3.59 µM
TGI (M14 melanoma): > 100 µM
GI50 (SNB-75 CNS): 2.83 µM
TGI (SNB-75 CNS): > 100 µM
GI50 (HCC-2998 colon): > 100 µM
TGI (HCC-2998 colon): > 100 µM
GI50 (SNB-19 CNS): 14.7 µM
TGI (SNB-19 CNS): > 100 µM
GI50 (MDA-MB-468 breast): 3.38 µM
TGI (MDA-MB-468 breast): > 100 µM
GI50 (LOX IMVI melanoma): 3.06 µM
TGI (LOX IMVI melanoma): > 100 µM

O=c1[nH]cnc2c(C3NC(CO)C(O)C3O)c[nH]c12 (stereo not given)
GI50 (MDA-MB-468 breast): > 100 µM
TGI (MDA-MB-468 breast): > 100 µM

COC(=O)c1nc(-c2ccccc2)oc1S(=O)(=O)n1nc(C)cc1N
GI50 (MDA-MB-468 breast): 3.98 µM
TGI (MDA-MB-468 breast): 16.9 µM

COc1cc2c(c(OC)c1OC)-c1ccc(SC)c(=O)cc1[C@@H](NC1OC(CO)C(O)C(O)C1O)CC2 (stereo not given in full)
GI50 (MDA-MB-468 breast): 0.0343 µM
TGI (MDA-MB-468 breast): > 100 µM

CC(C)(C)CN1CCn2c(nc3c(N)nccc32)S1
GI50 (MDA-MB-468 breast): 5.38 µM
TGI (MDA-MB-468 breast): 50.3 µM

O=[N+]([O-])c1cc(S(=O)(=O)Oc2ccccc2)ccc1Cl
GI50 (MDA-MB-468 breast): 1.83 µM
TGI (MDA-MB-468 breast): 3.64 µM
